In patent publication US6979686B1, “Substituted pyrazoles as p38 kinase inhibitors” (Pharmacia Corporation, priority 2001, dated 2005):
pIC50: −log10 of the molar value. Where two headings read alike, the source gives them in different places.

Biological target: T1, human p38 kinase alpha (Homo sapiens, UniProt Q16539)
T1 construct: GST (N, cleaved yes); made in house; host or cells: E. coli DH10B
Assay: p38 kinase in vitro assay, phosphorylation of biotinylated PHAS-I with 32P-ATP
Format: biochemical

[1] = in vitro P38-alpha kinase, read-out: P38 alpha kinase IC50
[2] = in vitro P38-alpha kinase inhibition, read-out: P38 alpha kinase IC50

T1 sequence (Q16539 whole entry): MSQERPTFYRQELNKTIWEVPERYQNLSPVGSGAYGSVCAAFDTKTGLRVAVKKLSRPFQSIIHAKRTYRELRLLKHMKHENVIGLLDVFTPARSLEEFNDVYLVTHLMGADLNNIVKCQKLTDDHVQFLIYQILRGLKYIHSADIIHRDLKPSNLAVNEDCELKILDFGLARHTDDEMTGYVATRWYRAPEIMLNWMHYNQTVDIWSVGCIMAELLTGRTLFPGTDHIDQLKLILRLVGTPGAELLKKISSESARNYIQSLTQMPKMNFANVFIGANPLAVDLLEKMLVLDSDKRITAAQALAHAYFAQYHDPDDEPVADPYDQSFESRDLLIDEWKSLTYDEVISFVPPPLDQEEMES

`Cc1c(-c2ccncc2)c(-c2ccc(F)cc2)nn1CC(=O)NCCc1ccc(Cl)c(Cl)c1` [Example B-2303] was tested, and the pIC50 [1] was 7.96.
Molecule `O=C(NCc1ccc(S(=O)(=O)NCCc2[nH]nc(-c3ccc(F)cc3)c2-c2ccncc2)s1)c1ccccc1` [Example B-1108] has a pIC50 [2] of 6.66.
In the case of `O=S(=O)(NCCc1[nH]nc(-c2ccc(F)cc2)c1-c1ccncc1)c1ccc(S(=O)(=O)c2ccccc2)s1` [Example B-1116], the pIC50 [2] was 6.39.
`Cc1ccccc1S(=O)(=O)N1CCC(c2[nH]nc(-c3ccc(F)cc3)c2-c2ccncc2)CC1` [Example B-1459] gave a pIC50 [1] of 6.17.
In the case of `CCCS(=O)(=O)NCCCc1[nH]nc(-c2ccc(F)cc2)c1-c1ccncc1` [Example B-1198], the “P38 alpha kinase % inhib @ conc.” value (@ 1.0 uM) was 92.0% @.
For `O=C(NC(Cc1ccccc1)c1[nH]nc(-c2ccc(F)cc2)c1-c1ccncc1)C1CCCN1` (centres unmarked) [Example B-0750], the pIC50 [2] was 6.04.
`CNC(=O)CCC(NC(=O)Nc1ccc(OC)cc1OC)c1[nH]nc(-c2ccc(F)cc2)c1-c1ccncc1` (centres unmarked) [Example B-0884] showed a pIC50 [2] of 5.72.
`CSc1cccc(NC(=O)NCCc2[nH]nc(-c3ccc(F)cc3)c2-c2ccncc2)c1` [Example B-0933] was tested, and the “P38 alpha kinase % inhib @ conc. (uM)” value (@ 1.0 uM) was 47.0% @.
Work on `O=C(c1ccc(F)c(C(F)(F)F)c1)N1CCC(c2[nH]nc(-c3ccc(F)cc3)c2-c2ccncc2)CC1` [Example B-1408] yielded a pIC50 [1] of 6.57.
`Cc1c(-c2ccncc2)c(-c2ccc(F)cc2)nn1CC(=O)NCCCCN1CCCC1` [Example B-2288] showed a pIC50 [1] of 5.19.
For `O=C(NCCc1[nH]nc(-c2ccc(F)cc2)c1-c1ccncc1)c1ccc(F)c(F)c1` [Example B-1129], the pIC50 [2] was 5.97.
For `Cc1cccc(S(=O)(=O)NCCc2[nH]nc(-c3ccc(F)cc3)c2-c2ccncc2)c1` [Example B-1089], the pIC50 [2] was over 7.00.
Molecule `COc1cccc(CC(=O)NC(Cc2ccccc2)c2[nH]nc(-c3ccc(F)cc3)c2-c2ccncc2)c1` (centres unmarked) [Example B-0849] has a pIC50 [2] of 5.90.
With `CCCCNS(=O)(=O)c1cccc(NC(=O)Cn2nc(-c3ccc(F)cc3)c(-c3ccncc3)c2C)c1` [Example B-2440] the “P38 alpha kinase IC50, uM or % inhib @ conc. (uM): % inhib” value (@ 10.0 uM) was 77.0% @.
For `Cc1c(-c2ccncc2)c(-c2ccc(F)cc2)nn1CC(=O)N(C)Cc1ccccc1` [Example B-2370], the “P38 alpha kinase % inhib @ conc.” value (@ 100.0 uM) was 73% @.
For `O=[N+]([O-])c1ccccc1CS(=O)(=O)NCCCc1[nH]nc(-c2ccc(F)cc2)c1-c1ccncc1` [Example B-1247], the pIC50 [1] was over 7.00.
`C=CCOC(=O)NC(C)c1[nH]nc(-c2ccc(F)cc2)c1-c1ccncc1` (centres unmarked) [Example B-0534] was tested, and the pIC50 [2] was 6.39.
For `CC(NC(=O)N(C)C)c1[nH]nc(-c2ccc(F)cc2)c1-c1ccncc1` (centres unmarked) [Example B-0584], the pIC50 [2] was 6.18.
Work on `O=S(=O)(NCCc1[nH]nc(-c2ccc(F)cc2)c1-c1ccncc1)c1cccc2cnccc12` [Example B-1118] yielded a pIC50 [2] of 6.48.
Work on `O=C(NCCCc1[nH]nc(-c2ccc(F)cc2)c1-c1ccncc1)c1cc(F)cc(F)c1` [Example B-1331] yielded a pIC50 [1] of 8.40.
`CCCCS(=O)(=O)N1CCC(c2[nH]nc(-c3ccc(F)cc3)c2-c2ccncc2)CC1` [Example B-1430] was tested, and the pIC50 [1] was 6.12.
For `Cc1c(-c2ccncc2)c(-c2ccc(F)cc2)nn1CC(=O)Nc1ccc(-n2ccc(C(F)(F)F)n2)cc1` [Example B-2455], the “P38 alpha kinase IC50, uM or % inhib @ conc. (uM): % inhib” value (@ 10.0 uM) was 87.0% @.
`O=S(=O)(NCCc1[nH]nc(-c2ccc(F)cc2)c1-c1ccncc1)c1ccccc1C(F)(F)F` [Example B-1086] showed a pIC50 [2] of over 7.00.
`O=S(=O)(NCCCc1[nH]nc(-c2ccc(F)cc2)c1-c1ccncc1)c1ccc(Cl)cc1Cl` [Example B-1253] gave a pIC50 [1] of 6.82.
Molecule `Cc1[nH]nc(-c2ccc(Cl)cc2Cl)c1-c1ccncc1` [Example A-50] has a pIC50 (activated human p38 kinase alpha, PHAS-I substrate, 50 μM unlabeled ATP, read-out: p38 kinase IC50) of 5.64.
`COCC(C)NC(=O)Cn1nc(-c2ccc(F)cc2)c(-c2ccncc2)c1C` (centres unmarked) [Example B-2325] was tested, and the “P38 alpha kinase % inhib @ conc.” value (@ 10.0 uM) was 60.0% @.
Molecule `O=C(NCc1ccccc1)NC(Cc1ccccc1)c1[nH]nc(-c2ccc(F)cc2)c1-c1ccncc1` (centres unmarked) [Example B-0770] has a pIC50 [2] of 5.64.
`O=C(NC(Cc1ccccc1)c1[nH]nc(-c2ccc(F)cc2)c1-c1ccncc1)N1CCOCC1` (centres unmarked) [Example B-0772] showed a pIC50 [2] of 6.10.
Molecule `Cc1cccc(Cl)c1S(=O)(=O)NCCc1[nH]nc(-c2ccc(F)cc2)c1-c1ccncc1` [Example B-1095] has a pIC50 [2] of over 7.00.
